Source: patent US8969387B2, “Pyrrole compounds” (Takeda Pharmaceutical Company Limited, priority 2008, dated 2015)
Structures can show the parent of a compound that is named as a salt.

System: Caspase-3/7 activity in HepG2 cells
Assay: Caspase-3/7 activity test
Type: cell-based, human
Conditions: HepG2, 100 μM, one day; relative to Staurosporine maximum (100%) and no test reagent (0%)
Description: Human liver cancer-derived cell line HepG2 (ATCC No. HB-8065) was passaged using Dulbecco's Modified Eagle medium (DMEM; Invitrogen) containing 10% fetal bovine serum (FBS; TRACE SCIENTIFIC LTD.), 1 mmol/L sodium pyruvate (Invitrogen), 2 mmol/L L-glutamine (Invitrogen), 50 IU/mL penicillin (Invitrogen) and 50 μg/mL streptomycin (Invitrogen) at 5% CO2, 37° C. The test reagent was prepared with DMSO to 10 mM, and further diluted with DMEM medium containing 0.5% FBS, 1 mmol/L sodium pyruvate, 2 mmol/L L-glutamine, 50 IU/mL penicillin and 50 μg/mL streptomycin to a final concentration of DMSO of 0.1%. HepG2 (2×10^4 cells/well) was cultured on a 96 well white plate (Costar) with the test reagent at 5% CO2, 37° C. After culture for one day, the intracellular ATP content was measured using ATPLite™ (PerkinElmer Life Sciences). The results are shown in Table 4 (n23, average value±SD) as a relative value (%) to control (without addition of drug).
The Caspase-3/7 activity in the cells cultured for one day by a method similar to that in Experimental Example 3 was measured using Caspase-Glo 3/7 Assay (Promega). The results are shown in Table 4 (n≧3, average value SD) as relative activity (%) of each reagent based on the maximum value of Caspase-3/7 activity when exposed to Staurosporine (100%), and the activity without addition of a test reagent (0%).

For `CNCc1cn(S(=O)(=O)c2cncc(F)c2)c(-c2cccnc2F)c1F` [Example 5, 1-{4-Fluoro-5-(2-fluoropyridin-3-yl)-1-[(5-fluoropyridin-3-yl)sulfonyl]-1H-pyrrol-3-yl}-N-methylmethanamine hydrochloride], the “Caspase-3/7 activity (%, 100 μM)” value was 0.3%.

`CNCc1cn(S(=O)(=O)c2cc(C)ccn2)c(-c2cccnc2F)c1F` [Example 2, 1-{4-Fluoro-5-(2-fluoropyridin-3-yl)-1-[(4-methylpyridin-2-yl)sulfonyl]-1H-pyrrol-3-yl}-N-methylmethanamine hydrochloride] was tested, and the “Caspase-3/7 activity (%, 100 μM)” value was −1.1%.

For `CNCc1cn(S(=O)(=O)c2cc(OC)ccn2)c(-c2cccnc2F)c1F` [Example 4, 1-{4-Fluoro-5-(2-fluoropyridin-3-yl)-1-[(4-methoxypyridin-2-yl)sulfonyl]-1H-pyrrol-3-yl}-N-methylmethanamine hydrochloride], the “Caspase-3/7 activity (%, 100 μM)” value was −0.6%.

For `CNCc1cn(S(=O)(=O)c2ccc(F)cn2)c(-c2cccnc2F)c1F` [Example 3, 1-{4-Fluoro-5-(2-fluoropyridin-3-yl)-1-[(5-fluoropyridin-2-yl)sulfonyl]-1H-pyrrol-3-yl}-N-methylmethanamine hydrochloride], the “Caspase-3/7 activity (%, 100 μM)” value was −0.5%.

In the case of `CNCc1cn(S(=O)(=O)c2ccc(C)nc2)c(-c2cccnc2F)c1F` [Example 8, 1-{4-Fluoro-5-(2-fluoropyridin-3-yl)-1-[(6-methylpyridin-3-yl)sulfonyl]-1H-pyrrol-3-yl}-N-methylmethanamine 0.5 fumarate], the “Caspase-3/7 activity (%, 100 μM)” value is reported as 2.4%.

In the case of `CNCc1cn(S(=O)(=O)c2ccc(OC)cn2)c(-c2cccnc2F)c1F` [Example 10, 1-{4-Fluoro-5-(2-fluoropyridin-3-yl)-1-[(5-methoxypyridin-2-yl)sulfonyl]-1H-pyrrol-3-yl}-N-methylmethanamine hydrochloride], the “Caspase-3/7 activity (%, 100 μM)” value is reported as 0.9%.
